# Assay results as given in US10888087B2, “Lactam solubility” (Conopco, Inc., priority 2015, dated 2021).
# Assay: Screening of NIS: lactam solubility in water or water + non-ionic surfactant additive, quantified by HPLC
# Assay type: physicochemical
# Design: key to Solubility Increase vs water alone: fold: lactam dissolved in water+additive / lactam dissolved in water
# Conditions: for Mean Lactam Level in Solution (ppm): 48 hours agitation
# Experimental: The following representative example uses 4-(4-chlorophenyl)-5-methylene-pyrrol-2-one.
# Excess solid lactam (˜3 mg) was placed in a Whatman® Mini Uniprep sample vial, fitted with a 0.45 um nylon filter. Water or water+additive (NIS) (500 μL) was added the mixture shaken and tapped briefly to initially disperse the solid and the mixture then agitated for 48 hours using a plate shaker fitted with a vial holder. After 48 hours, the solid was removed from the system by pressing down the plunger with integral filter on the vial. This removes the solid and provides filtered solution within the inner chamber which is then ready for analysis.
# The level of lactam dissolved in solution was quantified using HPLC analysis. Samples were analysed on an Agilent 1200® series HPLC fitted with a Thermo Hypersil Gold® C18 column (15×2.1×3 μm), isocratic elution with 60/40 methanol/water (+0.1% Formic Acid), 0.4 mL/min flow rate, using a DAD detector at 285 nm. The lactam tested has a retention time of ˜2.8 minutes.
# For each additive, the absolute level of lactam in solution was measured and reported as an increase in solubility of lactam relative to water alone.
# Each test surfactant solution was tested in triplicate and the mean value of lactam in solution calculated. Values of solubility were quoted as the improvement in aqueous solubility vs water alone (i.e. mean level of lactam dissolved in water+solvent/mean level of lactam dissolved in water) to allow comparison between screens conducted on different days.
# [1] = Neodol 25-7, 0% additive in water
# [2] = Neodol 25-7, 0.5% additive in water
# [3] = Neodol 25-7, 1% additive in water
# [4] = Neodol 25-7, 2% additive in water
# [5] = Neodol 25-7, 5% additive in water
# [6] = Neodol 25-7, 10% additive in water
# [7] = Neodol 25-7, 20% additive in water
# [8] = Tween 20, 0.5% additive in water
# [9] = Tween 20, 10% additive in water
# [10] = Tween 20, 20% additive in water
# [11] = Tween 80, 0.5% additive in water
# [12] = Tween 80, 10% additive in water
smiles,measurement,setting,value
"C=C1NC(=O)C=C1c1ccc(Cl)cc1 [Ref. 488, 4-(4-chlorophenyl)-5-methylene-pyrrol-2-one]",Solubility Increase vs water alone,[1],1.0
same,Mean Lactam Level in Solution (ppm),[1],2.4 ppm
same,Solubility Increase vs water alone,[2],48.3
same,Mean Lactam Level in Solution (ppm),[2],116.0 ppm
same,Solubility Increase vs water alone,[3],84.7
same,Mean Lactam Level in Solution (ppm),[3],203.2 ppm
same,Solubility Increase vs water alone,[4],162.7
same,Mean Lactam Level in Solution (ppm),[4],390.4 ppm
same,Solubility Increase vs water alone,[5],251.4
same,Mean Lactam Level in Solution (ppm),[5],603.3 ppm
same,Solubility Increase vs water alone,[6],255.2
same,Mean Lactam Level in Solution (ppm),[6],612.5 ppm
same,Solubility Increase vs water alone,[7],189.8
same,Mean Lactam Level in Solution (ppm),[7],455.6 ppm
same,Solubility Increase vs water alone,"Tween 20, 0% additive in water",1.0
same,Mean Lactam Level in Solution (ppm),"Tween 20, 0% additive in water",1.7 ppm
same,Solubility Increase vs water alone,[8],36.9
same,Mean Lactam Level in Solution (ppm),[8],61.6 ppm
same,Solubility Increase vs water alone,"Tween 20, 1% additive in water",70.9
same,Mean Lactam Level in Solution (ppm),"Tween 20, 1% additive in water",118.3 ppm
same,Solubility Increase vs water alone,"Tween 20, 2% additive in water",135.8
same,Mean Lactam Level in Solution (ppm),"Tween 20, 2% additive in water",226.5 ppm
same,Solubility Increase vs water alone,"Tween 20, 5% additive in water",310.7
same,Mean Lactam Level in Solution (ppm),"Tween 20, 5% additive in water",518.3 ppm
same,Solubility Increase vs water alone,[9],497.3
same,Mean Lactam Level in Solution (ppm),[9],829.6 ppm
same,Solubility Increase vs water alone,[10],927.0
same,Mean Lactam Level in Solution (ppm),[10],1546.3 ppm
same,Solubility Increase vs water alone,"Tween 80, 0% additive in water",1.00
same,Mean Lactam Level in Solution (ppm),"Tween 80, 0% additive in water",6.0 ppm
same,Solubility Increase vs water alone,[11],6.92
same,Mean Lactam Level in Solution (ppm),[11],41.5 ppm
same,Solubility Increase vs water alone,"Tween 80, 1% additive in water",12.51
same,Mean Lactam Level in Solution (ppm),"Tween 80, 1% additive in water",75.0 ppm
same,Solubility Increase vs water alone,"Tween 80, 2% additive in water",20.56
same,Mean Lactam Level in Solution (ppm),"Tween 80, 2% additive in water",123.3 ppm
same,Solubility Increase vs water alone,"Tween 80, 5% additive in water",34.74
same,Mean Lactam Level in Solution (ppm),"Tween 80, 5% additive in water",208.4 ppm
same,Solubility Increase vs water alone,[12],65.23
same,Mean Lactam Level in Solution (ppm),[12],391.4 ppm
